# Reference: patent publication US20130197032A1, “[…] COMPOUNDS FOR THE TREATMENT OF NEUROLOGICAL AND […] DISORDERS” (A. CARLSSON RESEARCH AB, priority 2010, published 2013)
# Where “and” joins values, the source holds several entries; their conditions need not be identical. Identical values can stand only once. Like-named read-outs stand apart in the source and are kept apart here.
# Legend:
# drug naive mice = test: Head twitch induction in mice; type: in vivo; details: DOI 1 mg/kg ip, OSU6162 enantiomers 9.375-300 μmol/kg ip, 10 min before registration
# Procedure: The animals used in the head twitch experiments were individually placed in Macrolon type II cages and allowed to habituate to these test cages during 30 minutes before the video registration of behavior began. […] The animals were videotaped for 10 minutes; the behavior was scored during the first 5 minutes. The number of head twitches was counted from the videotapes by a person blind to the treatment.
# In FIG. 5, the number of head twitches produced during 5 minutes is shown. The mice were habituated to the test cages during 30 minutes before the video registration of behavior began. […] Shown are means and SEM, n=6-12.
# [1] = test system: reserpine-pretreated mice; test: Motor activity in monoamine-depleted (reserpine-pretreated) mice, video tracking; details: for antagonism of motor stimulation induced by (+)-OSU6162 250 μmol/kg ip / antagonism of motor stimulation induced by (−)-OSU6162 250 μmol/kg ip: haloperidol 1 mg/kg ip, raclopride 20 mg/kg sc, M100907 1 mg/kg ip, SCH23390 0.3 mg/kg sc, SCH39166 0.1-0.9 mg/kg sc
# human 5-HT2A receptors [2] = target: T1, human 5-HT2A receptors (Homo sapiens, UniProt P28223); test: Phosphatidyl inositol (PI) hydrolysis assay at 5-HT2A; type: cell-based; parameters: expressed in transfected cells
# Procedure: After lysing the cells with 50 μl of 0.1M formic acid, 20 μl each cell lysate was mixed with 80 μl (1 mg) RNA Binding YSi-SPA beads (GE Healthcare, Chalfont St. Giles, UK) on PICO plates (PerkinElmer) and counted on a TopCount (Packard).
# Each curve is representative of at least three or more independent experiments.
# D2 receptors [3] = target: T2, D2 receptors (Homo sapiens, UniProt P14416); test: GTPγS binding assay at D2; type: biochemical; parameters: expressed in transfected cells
# Procedure: Cells were not centrifuged following cell scraping, but were collected directly into the ice-cold nitrogen cavitation chamber.
# 50 μl/well Wheat-Germ Agglutinin SPA beads (Perkin Elmer, Shelton, Conn.) were added to the plates and the plates incubated for 1 hour. The plates were then centrifuged at 1,000×g for 10 minutes and read on a Top Count NXT (Perkin Elmer, Shelton, Conn.).
# To relate the results observed in R-SAT™ to a more conventional assay system, these ligands were also tested for the ability to induce GTPγS binding through D2 receptors.
# human 5-HT2A receptors [4] = target: T1, human 5-HT2A receptors; test: R-SAT functional assay at 5-HT2A; type: cell-based; parameters: expressed in transfected cells; host or cells: NIH-3T3; details: for EC50: read-out: R-SAT pEC50 (converted)
# D2 receptors [5] = target: T2, D2 receptors; test: R-SAT functional assay at D2; type: cell-based; parameters: expressed in transfected cells; host or cells: NIH-3T3
# human 5-HT2A receptors [6] = target: T1, human 5-HT2A receptors; test: BRET2 beta-arrestin-2 recruitment assay at 5-HT2A; type: cell-based; parameters: expressed in transfected cells; host or cells: HEK-293T
# Procedure: (§1) BRET-2 signals were measured using the multiplate reader Mithras 940LB (Berthold Technologies, Bad Wildbad, Germany) and were calculated as the ratio between the Renilla luciferase emission and the GFP2 emission corrected by the background emissions of non-transfected cells.
# D2 receptors [7] = target: T2, D2 receptors; test: BRET2 beta-arrestin-2 recruitment assay at D2; type: cell-based; parameters: expressed in transfected cells; host or cells: HEK-293T
# Procedure: as §1
# Each curve is representative of two to three independent experiments.
# human 5-HT1E receptor = target: T3, human 5-HT1E receptor (Homo sapiens, UniProt P28566); test: R-SAT assay 5-HT1E; type: cell-based; details: Table 3, 5-HT1E
# T3 construct: expressed in transfected cells; host or cells: NIH/3T3
# human 5-HT1F receptor = target: T4, human 5-HT1F receptor (Homo sapiens, UniProt P30939); test: R-SAT assay 5-HT1F; type: cell-based; details: Table 3, 5-HT1F
# T4 construct: expressed in transfected cells; host or cells: NIH/3T3
# T4 sequence (P30939 1-366): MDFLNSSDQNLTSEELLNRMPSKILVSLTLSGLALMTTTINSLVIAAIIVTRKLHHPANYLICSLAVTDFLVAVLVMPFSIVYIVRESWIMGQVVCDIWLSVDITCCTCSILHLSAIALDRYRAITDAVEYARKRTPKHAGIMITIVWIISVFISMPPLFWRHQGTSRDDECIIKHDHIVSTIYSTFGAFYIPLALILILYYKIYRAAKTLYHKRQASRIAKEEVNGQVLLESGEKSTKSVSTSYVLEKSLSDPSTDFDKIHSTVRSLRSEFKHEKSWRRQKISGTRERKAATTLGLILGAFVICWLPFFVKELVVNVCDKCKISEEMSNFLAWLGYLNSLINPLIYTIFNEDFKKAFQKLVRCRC
# human H1 receptor = target: T5, human H1 receptor (Homo sapiens, UniProt P35367); test: R-SAT assay H1; type: cell-based; details: Table 3, H1; percent response of reference Histamine
# T5 construct: expressed in transfected cells; host or cells: NIH/3T3
# habituated rats = test: Locomotion in habituated rats, photocell activity boxes; details: habituated rats
# Procedure: Motor activity experiments in both active and habituated rats were performed on male Sprague-Dawley rats (Charles River, Germany) weighing 280-320 g. Prior to testing, rats were housed in groups of four or five in ventilated Macrolon type IV cages for approximately one week.
# Rats were housed in a normal daylight cycle and the experiments were carried out during daytime. […] During the following 5 minutes test drugs were injected, after which the rats were returned to the boxes for another 60 minutes. Five by five rows of photocell beams at floor level allowed a computer based-system to register horizontal activity. Motor activity is presented as accumulated number of unrepeated beam breaks, i.e. several consecutive breakings of one beam is counted as one beam break. The software was set to register behavior from the rats' first introduction into the arena until it was finally removed from the box, i.e. for 110 or 130 minutes.
# Locomotion was measured as accumulated unrepeated beam breaks. […] This was followed by 60 minutes of registration. Data are calculated from a 30 minutes period, 5-35 minutes after injection, and plotted as means and SEM. […] Data were calculated from a 30 minutes period, 5-35 minutes after injection.
# The effect of haloperidol on the locomotor stimulation was also studied in habituated rats (see FIG. 10). Locomotion was measured as accumulated unrepeated beam breaks. Rats were given haloperidol (0.05, 0.2, 0.5 mg/kg, sc) and were then allowed to habituate for 65 minutes. […] Data are calculated from a 30 minutes period, taken 5-35 minutes after injection, and plotted as means and SEM. N=4-5.
# [8] = percent response of reference ligand 5-HT, mean ± SEM
# [9] = percent response of reference ligand dopamine, mean ± SEM
# [10] = Table 1, negative logarithm of EC50 in molar (M), NIH3T3 cells, mean ± SEM
# [11] = Table 2, percent response of reference ligand pergolide, mean ± SEM
# [12] = negative logarithm of EC50 in molar (M), HEK 293T cells, mean ± SEM
# [13] = negative logarithm of EC50 in molar
# [14] = percent response of reference BRL 54443
# [15] = reserpine-pretreated mice, M100907 0.1 and 1 mg/kg ip 30 minutes prior
# [16] = haloperidol 0.05, 0.2 and 0.5 mg/kg sc
# T2 sequence (P14416 1-414 isoform P14416-2): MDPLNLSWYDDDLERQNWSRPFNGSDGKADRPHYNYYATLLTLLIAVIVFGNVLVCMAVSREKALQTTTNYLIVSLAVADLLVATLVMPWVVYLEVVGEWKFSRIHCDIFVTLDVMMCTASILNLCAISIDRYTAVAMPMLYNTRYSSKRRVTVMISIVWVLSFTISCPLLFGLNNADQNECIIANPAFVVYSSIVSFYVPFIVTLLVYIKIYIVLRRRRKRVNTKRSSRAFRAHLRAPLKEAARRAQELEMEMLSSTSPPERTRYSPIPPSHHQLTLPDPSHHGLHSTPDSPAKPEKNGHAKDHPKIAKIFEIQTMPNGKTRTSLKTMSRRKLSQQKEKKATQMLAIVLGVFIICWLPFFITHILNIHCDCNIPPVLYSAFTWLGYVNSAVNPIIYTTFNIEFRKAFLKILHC
# T1 sequence (P28223 whole entry): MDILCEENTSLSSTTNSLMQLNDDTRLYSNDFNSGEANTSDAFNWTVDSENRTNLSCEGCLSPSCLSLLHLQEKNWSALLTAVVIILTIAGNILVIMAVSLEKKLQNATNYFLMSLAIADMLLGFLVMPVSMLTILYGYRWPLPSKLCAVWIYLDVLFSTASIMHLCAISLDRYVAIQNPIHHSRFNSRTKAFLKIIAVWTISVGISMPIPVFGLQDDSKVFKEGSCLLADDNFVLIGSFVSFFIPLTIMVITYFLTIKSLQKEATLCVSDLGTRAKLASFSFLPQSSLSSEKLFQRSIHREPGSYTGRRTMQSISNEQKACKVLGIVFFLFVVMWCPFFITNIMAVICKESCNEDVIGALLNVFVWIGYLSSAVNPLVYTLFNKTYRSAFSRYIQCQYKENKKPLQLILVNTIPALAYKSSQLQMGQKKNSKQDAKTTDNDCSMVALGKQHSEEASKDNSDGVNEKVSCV
# T3 sequence (P28566 whole entry): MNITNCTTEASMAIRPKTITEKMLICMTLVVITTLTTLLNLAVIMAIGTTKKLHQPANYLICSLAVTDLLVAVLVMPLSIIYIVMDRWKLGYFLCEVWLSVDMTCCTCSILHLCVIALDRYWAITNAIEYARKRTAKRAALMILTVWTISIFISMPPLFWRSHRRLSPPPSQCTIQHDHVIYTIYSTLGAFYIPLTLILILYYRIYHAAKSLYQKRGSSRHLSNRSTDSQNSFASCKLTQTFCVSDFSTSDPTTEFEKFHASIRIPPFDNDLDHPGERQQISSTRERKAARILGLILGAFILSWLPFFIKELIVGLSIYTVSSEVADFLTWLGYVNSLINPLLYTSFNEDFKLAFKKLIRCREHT
# T5 sequence (P35367 whole entry): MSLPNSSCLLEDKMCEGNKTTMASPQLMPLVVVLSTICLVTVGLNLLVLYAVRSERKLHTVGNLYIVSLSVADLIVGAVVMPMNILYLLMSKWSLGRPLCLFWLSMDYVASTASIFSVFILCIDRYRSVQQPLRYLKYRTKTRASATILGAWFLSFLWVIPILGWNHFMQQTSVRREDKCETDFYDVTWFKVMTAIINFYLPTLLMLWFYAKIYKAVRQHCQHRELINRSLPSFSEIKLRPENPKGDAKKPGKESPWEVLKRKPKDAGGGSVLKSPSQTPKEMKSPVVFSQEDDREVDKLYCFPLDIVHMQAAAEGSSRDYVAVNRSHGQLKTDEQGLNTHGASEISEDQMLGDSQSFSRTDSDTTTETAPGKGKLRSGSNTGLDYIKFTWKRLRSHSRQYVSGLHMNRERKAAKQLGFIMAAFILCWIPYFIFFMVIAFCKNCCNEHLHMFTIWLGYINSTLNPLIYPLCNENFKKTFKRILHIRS
structure (smiles),measurement,setting,value
"COc1cc(CC(C)N)c(OC)cc1I.Cl (racemic) [DOI, (±)-1-(2,5-dimethoxy-4-iodophenyl)-2-aminopropane hydrochloride, reference compound]",head twitches produced during 5 minutes,drug naive mice,induces head twitches in the mouse
same,"motor activity (distance moved, DM 1.5)","[1]; reserpine 10 mg/kg ip 20 h prior, test drug ip just prior to recording, first 30 minutes, vs reserpine only group",able to induce locomotor stimulation in reserpine-pretreated mice
"CCCN1CCCC(c2cccc(O)c2)C1 (single isomer, unassigned; (+)) [(+)-3-PPP, [3-(3-hydroxyphenyl)-N-n-propyl]piperidine]",EC50,"human 5-HT2A receptors [2]; negative logarithm of EC50 in molar (M), HEK 293T cells, mean ± SEM, read-out: PI Hydrolysis pEC50 (converted)",> 1e-05 M
same,PI Hydrolysis Eff (%),human 5-HT2A receptors [2]; [8],17 — %
same,agonist profile in GTPγS binding assays at D2 receptors,D2 receptors [3],full agonist
same,GTPγS Eff %,D2 receptors [3]; [9],102 ± 4%
same,R-SAT Eff(%),human 5-HT2A receptors [4],87 ± 26%
same,EC50,human 5-HT2A receptors [4]; [10],6.31e-06 M
same,R-SAT Eff(%),D2 receptors [5]; [11],101 ± 8%
same,EC50,"human 5-HT2A receptors [6]; negative logarithm of EC50 in molar (M), HEK 293T cells, mean ± SEM, read-out: BRET2 pEC50 (converted)",> 0.0001 M
same,BRET2 Eff %,human 5-HT2A receptors [6]; [8],42 ± 5%
same,agonist profile in BRET2 assays at D2 receptors,D2 receptors [7],partial agonists
same,BRET2 Eff %,D2 receptors [7]; [9],58 ± 2%
"CCCN1CCCC(c2cccc(O)c2)C1 (single isomer, unassigned; (-)) [(−)-3-PPP, [3-(3-hydroxyphenyl)-N-n-propyl]piperidine]",PI Hydrolysis Eff (%),human 5-HT2A receptors [2]; [8],5 — %
same,agonist profile in GTPγS binding assays at D2 receptors,D2 receptors [3],strong partial agonists
same,GTPγS Eff %,D2 receptors [3]; [9],77 ± 4%
same,R-SAT Eff(%),human 5-HT2A receptors [4],47 ± 12%
same,EC50,human 5-HT2A receptors [4]; [10],3.98e-06 M
same,R-SAT Eff(%),D2 receptors [5]; [11],77% and 77 ± 4%
same,BRET2 Eff %,human 5-HT2A receptors [6]; [8],10 ± 4%
same,BRET2 Eff %,D2 receptors [7]; [9],2% and 2 ± 0%
"NCCc1c[nH]c2ccc(O)cc12 [5-HT, 5-hydroxytryptamine]",PI Hydrolysis Eff (%),human 5-HT2A receptors [2],100 ± 0%
same,BRET2 Eff %,human 5-HT2A receptors [6],100 ± 5%
CCN(CC)C(=O)N[C@H]1C[C@@H]2c3cccc4[nH]cc(c34)C[C@H]2N(C)C1 [(+)-Terguride],PI Hydrolysis pEC50,human 5-HT2A receptors [2]; [12],9.1 ± 0.2
same,PI Hydrolysis Eff (%),human 5-HT2A receptors [2]; [8],52 ± 8%
same,GTPγS pEC50,D2 receptors [3],9.3 ± 0.2
same,agonist profile in GTPγS binding assays at D2 receptors,D2 receptors [3],strong partial agonists
same,GTPγS Eff %,D2 receptors [3]; [9],88 ± 8%
same,R-SAT pEC50,human 5-HT2A receptors [4]; [10],9.8 ± 0.9
same,R-SAT Eff(%),"human 5-HT2A receptors [4]; Table 1, percent response of reference ligand 5-CT, mean ± SEM",89 ± 13%
same,R-SAT Eff(%),D2 receptors [5],92 ± 20%
same,R-SAT pEC50,"D2 receptors [5]; Table 2, negative logarithm of EC50 in molar, NIH3T3 cells, mean ± SEM",11.1 ± 0.2
same,BRET2 pEC50,human 5-HT2A receptors [6]; [12],7.0 ± 0.0
same,BRET2 Eff %,human 5-HT2A receptors [6]; [8],42 ± 2%
same,BRET2 pEC50,"D2 receptors [7]; negative logarithm of EC50 in molar, HEK293T cells, mean ± SEM",7.2 ± 0.1
same,BRET2 Eff %,D2 receptors [7]; [9],8 ± 1%
same,BRET2 Eff %,"D2 receptors [7]; percent response of reference ligand dopamine, mean ± SEM, listed as (+)-terguride",8%
"CN1CCC(c2c[nH]c3ccc(O)cc23)CC1 [BRL 54443, reference compound]",pEC50,human 5-HT1E receptor; [13],6.7
same,Eff (%),human 5-HT1E receptor; [14],100%
same,pEC50,human 5-HT1F receptor; [13],6.8
same,Eff (%),human 5-HT1F receptor; [14],100%
"NCCc1c[nH]cn1 [Histamine, reference compound]",Eff (%),human H1 receptor,100%
"COc1cccc([C@H](O)C2CCN(CCc3ccc(F)cc3)CC2)c1OC [M100907, (+)-(R)-1-[1-[2-(4-fluorophenyl)ethyl]piperidin-4-yl]-1-(2,3-dimethoxyphenyl)methanol]",reversal of (−)-OSU6162-induced locomotor stimulation,"habituated rats; M100907 1 mg/kg ip, 15-35 minute interval",significant reversal
same,counteraction of locomotor stimulation induced by (+)-OSU6162 50 μmol/kg sc,"habituated rats; M100907 0.5 and 1 mg/kg ip, 5-35 minute interval",significantly counteracted
same,effect of three doses on motor activity increase caused by 250 μmol/kg of (−)-OSU6162,"[1]; reserpine-pretreated mice, M100907 0.01, 0.1, 1 mg/kg ip 30 minutes prior",Only the 1 mg/kg dose significantly decreased motor activity
same,antagonism of locomotor stimulation induced by DOI 2.5 mg/kg,"[1]; reserpine-pretreated mice, M100907 0.01, 0.1, 1 mg/kg ip 30 minutes prior, all doses significant",highly effective in antagonizing the locomotor stimulant effects of 2.5 mg/kg of DOI
same,reversal of locomotor stimulation induced by 125 μmol/kg of (+)-OSU6162,[1]; [15],effectively reversed
same,reversal of locomotor stimulation induced by 125 μmol/kg of (−)-OSU6162,[1]; [15],effectively reversed
same,antagonism of motor stimulation induced by (+)-OSU6162 250 μmol/kg ip,[1]; reserpine-pretreated mice,effectively antagonized this response
same,antagonism of motor stimulation induced by (−)-OSU6162 250 μmol/kg ip,[1]; reserpine-pretreated mice,effectively antagonized
"Clc1ccc2c(c1)N=C(N1CCNCC1)c1ccccc1N2 [NDMC, 8-chloro-11-(1-piperazinyl)-5H-dibenzo[b,e][1,4]diazepine]",EC50,"D2 receptors [3]; negative logarithm of EC50 in molar, HEK293T membranes, mean ± SEM, read-out: GTPγS pEC50 (converted)",0.0398 µM
same,GTPγS Eff %,D2 receptors [3]; [9],18 ± 1%
same,R-SAT Eff(%),D2 receptors [5],33 ± 2%
same,EC50,"D2 receptors [5]; Table 2, negative logarithm of EC50 in molar, NIH3T3 cells, mean ± SEM, read-out: R-SAT pEC50 (converted)",0.0126 µM
same,agonist profile in BRET2 assays at D2 receptors,D2 receptors [7],no agonist activity
same,BRET2 Eff %,D2 receptors [7]; [9],0 ± 0%
"CCCN[C@H]1CCc2nc(N)sc2C1 [Pramipexole, (6S)—N^6-propyl-4,5,6,7-tetrahydro-1,3-benzothiazole-2,6-diamine]",GTPγS Eff %,D2 receptors [3],87 ± 6%
same,R-SAT Eff(%),human 5-HT2A receptors [4],48 ± 9%
same,R-SAT Eff(%),D2 receptors [5],84 ± 9%
same,BRET2 Eff %,human 5-HT2A receptors [6],52 ± 3%
same,BRET2 Eff %,D2 receptors [7],104 ± 1%
same,agonist profile in BRET2 assays at D2 receptors,D2 receptors [7],full agonist
CN1CCc2cc(Cl)c(O)cc2[C@H]2c3ccccc3CC[C@@H]21 [SCH39166],antagonism of motor stimulation induced by (+)-OSU6162 250 μmol/kg ip,[1]; reserpine-pretreated mice,did not significantly influence the motor activation
same,antagonism of motor stimulation induced by (−)-OSU6162 250 μmol/kg ip,[1]; reserpine-pretreated mice,did not significantly influence the motor activation
O=C(CCCN1CCC(O)(c2ccc(Cl)cc2)CC1)c1ccc(F)cc1 [haloperidol],antagonism of locomotor stimulation induced by (+)-OSU6162 50 μmol/kg sc,habituated rats; [16],effectively antagonized the locomotor stimulation
same,antagonism of locomotor stimulation induced by (−)-OSU6162 50 μmol/kg sc,habituated rats; [16],effectively antagonized the locomotor stimulation
same,antagonism of motor stimulation induced by (+)-OSU6162 250 μmol/kg ip,[1]; reserpine-pretreated mice,"None of the dopaminergic antagonists, i e SCH23390 (0.3 mg/kg), raclopride (20 mg/kg) or haloperidol (1 mg/kg), could antagonize"
same,antagonism of motor stimulation induced by (−)-OSU6162 250 μmol/kg ip,[1]; reserpine-pretreated mice,could not antagonize
CCN1CCC[C@H]1CNC(=O)c1c(O)c(Cl)cc(Cl)c1OC [raclopride],antagonism of motor stimulation induced by (+)-OSU6162 250 μmol/kg ip,[1]; reserpine-pretreated mice,"None of the dopaminergic antagonists, i e SCH23390 (0.3 mg/kg), raclopride (20 mg/kg) or haloperidol (1 mg/kg), could antagonize"
same,antagonism of motor stimulation induced by (−)-OSU6162 250 μmol/kg ip,[1]; reserpine-pretreated mice,could not antagonize
